From patent publication US12616740B2, “Methods of using a GIP/GLP1 co-agonist for therapy” (ELI LILLY AND COMPANY, priority 2018, dated 2026)

How the values were obtained:
Assay type in all cases: in vivo, human
[1] = test system: patients with T2DM who have inadequate glycemic control; assay: NCT03131687: mean fasting glucose at Week 26; set-up: Mean change from baseline, fasting glucose: unit not given here
Description: (§1) Clinical Study (NCT03131687) Supporting Maintenance Dose Embodiments A 6-month (26-week) Phase 2 double-blind clinical study is designed to evaluate the safety, efficacy, and PK/PD of 4 dose levels (1 mg, 5 mg, 10 mg and 15 mg respectively) of tirzepatide once weekly by subcutaneous injection compared with dulaglutide 1.5 mg. once weekly (QW) and placebo QW in patients with T2DM who have inadequate glycemic control with diet and exercise with or without a stable dose of metformin. Tirzepatide dose is up-titrated to the maintenance dose using the following weekly dose increments:
(§2) The study also has a 4-week follow up period. In addition to safety and efficacy for treating T2DM, efficacy endpoints include the effect of tirzepatide on HbA1c, FBG, body weight, lipids, and waist circumference compared with placebo and with dulaglutide 1.5 mg. The study also evaluates the effect of tirzepatide on GI tolerability, hypoglycemia, hypersensitivity reactions, and pancreatic safety, as well as the development of treatment-emergent anti-drug antibodies. Model-based dose response analyses are performed to predict potential for significant HbA1c lowering and weight loss in longer studies. Statistical Analyses: Efficacy: The primary efficacy outcome of HbA1c change from baseline to the 26-week endpoint is analyzed using a Bayesian dose-response model. Analyses are performed on the intention to treat population (mITT) analysis set. Supportive analysis of the primary efficacy outcome for the mITT dataset are the model for post-baseline measures (MMRM) with body mass index (BMI) (<30 kg/m^2, ≥30 kg/m^2), metformin use, treatment, visit, and treatment-by-visit interaction as fixed effects, baseline HbA1c as a covariate, and patient as a random effect. The mean weight change from baseline at 12 and 26 weeks, along with the mean change from baseline of HbA1c at 12 weeks, is analyzed using similar dose-response models as the primary analyses. The percentages of patients with ≥5% or ≥10% body weight loss, reaching the HbA1c target of ≤6.5% or ≤7.0% at 26 weeks, or requiring rescue therapy are analyzed using logistic regression with fixed effects of treatment and strata, and baseline as a covariate. The changes from baseline in FBG (fasting blood glucose), SMBG (self-monitored blood glucose) levels, waist circumference, and mean percentage change in lipids from baseline to 12 and 26 weeks are analyzed using a similar MMRM to the one used for the primary analyses. Table Abbreviations: Dula 1.5 mg=dulaglutide 1.5 mg once weekly; LY means tirzepatide, and LY 1 mg=tirzepatide 1 mg once weekly; LY 5 mg=5 mg once weekly; LY 10 mg=escalation dose group tirzepatide once weekly with highest dose of 10 mg; LY 15 mg=escalation dose group of tirzepatide once weekly with highest dose 15 mg; LOCF=last observation-carried-forward; N=number of patients; pbo=placebo; Week 26=mITT on-treatment data at Week 26 excluding data after study drug discontinuation or rescue drug initiation; mITT=modified intent-to-treat; SD=standard deviation. For Table 4, n=number of patients in the population with baseline and post-baseline value at the specified time point. For Table 6, LY10 mg=escalation dose group tirzepatide, once weekly with highest dose of 10 mg; escalation dose: (5 mg weeks 0 and 1), LY15 mg=escalation dose group tirzepatide, once weekly with highest dose of 15 mg; escalation dose: (5 mg weeks 0 and 1; 10 mg weeks 2 to 5); N=number of patients in specified group, m=number of patients who experienced new event during interval, FolUp=follow up, T/Wk=Time range, (week) and %=means percent patients spending at least some time in treatment group who experienced new event during interval. For Table 7, n is the number of patients with events meeting the criteria; N is number of patients in the population; % is percent of patients in treatment group experiencing the event.

[2] = NCT03131687: decrease appetite (reported event)
Description: as §1, §2

patients with T2DM = assay: Biomarkers measured in clinical studies (eGFR, triglyceride)
Description: Clinically relevant biomarkers are measured in clinical studies to further support the use of tirzepatide for treating chronic kidney disease. […] Clinical study laboratory measurements support the use of tirzepatide in the treatment of chronic kidney disease. Clinically relevant biomarkers are measured to assess and support the use of tirzepatide in the treatment of atherosclerosis. Clinically relevant triglyceride levels decrease in all tirzepatide treatment groups. Clinical observations support that tirezepatide can be beneficial for use in the treatment of atherosclerosis.

[3] = LY1 mg = tirzepatide 1 mg once weekly, N 44
[4] = LY5 mg = tirzepatide 5 mg once weekly, N 48
[5] = LY10 mg = tirzepatide once weekly, highest dose 10 mg, N 44
[6] = LY15 mg = tirzepatide once weekly, highest dose 15 mg, N 35
[7] = LY1 mg = tirzepatide 1 mg once weekly, N = 52
[8] = LY5 mg = tirzepatide 5 mg once weekly, N = 55
[9] = LY10 mg = tirzepatide once weekly, highest dose 10 mg, N = 51
[10] = LY15 mg = tirzepatide once weekly, highest dose 15 mg, N = 53

**Q.** With tirzepatide [LY] as the substance, how does the “Mean change from baseline, fasting glucose” value (shortened to “Mean change from baseline”) [1, 3] read?
**A.** Its value is −6.2.

**Q.** What about the “Mean glucose value (fasting)” value [1, 3] of the same substance?
**A.** Its value is 154.9 mg/dL.

**Q.** What about the “Mean change from baseline” value [1, 4] of the same substance?
**A.** Its value is −46.7.

**Q.** And the “Mean glucose value (fasting)” value [1, 4]?
**A.** Its value is 126.5 mg/dL.

**Q.** What about the “Mean change from baseline” value [1, 5] of the same substance?
**A.** Its value is −66.9.

**Q.** What about the “Mean glucose value (fasting)” value [1, 5] of the same substance?
**A.** Its value is 104.8 mg/dL.

**Q.** And the “Mean change from baseline” value [1, 6]?
**A.** Its value is −56.8.

**Q.** And the “Mean glucose value (fasting)” value [1, 6]?
**A.** Its value is 110.3 mg/dL.

**Q.** And the “fasting serum glucose (in words)” value ([1]; tirzepatide 5 mg, 10 mg, and 15 mg doses)?
**A.** The value was “significantly decrease fasting serum glucose compared with placebo and dulaglutide 1.5 mg”.

**Q.** What about the “Decrease Appetite (reported): n, number of patients with events” value (shortened to “Decrease Appetite (reported): n, number”) [2, 7] of the same substance?
**A.** The value was “n = 2;”.

**Q.** And the “Decrease Appetite (reported): percent of patients in treatment group experiencing the event” value (“Decrease Appetite (reported): percent” below) [2, 7]?
**A.** Its value is 3.8%.

**Q.** And the “Decrease Appetite (reported): n, number” value [2, 8]?
**A.** The value was “n = 10;”.

**Q.** And the “Decrease Appetite (reported): percent” value [2, 8]?
**A.** The value was 18.2%.

**Q.** And the “Decrease Appetite (reported): n, number” value [2, 9]?
**A.** The value was “n = 13;”.

**Q.** And the “Decrease Appetite (reported): percent” value [2, 9]?
**A.** The value was 25.5%.

**Q.** What about the “Decrease Appetite (reported): n, number” value [2, 10] of the same substance?
**A.** Its value is “n = 10;”.

**Q.** And the “Decrease Appetite (reported): percent” value [2, 10]?
**A.** Its value is 18.9%.

**Q.** What about the “triglyceride levels (in words)” value (patients with T2DM; all tirzepatide treatment groups) of the same substance?
**A.** The value was “decrease”.

**Q.** What about the “eGFR (in words)” value (patients with T2DM; study NCT03131687, at any dosage) of the same substance?
**A.** Its value is “no decrease in eGFR was observed”.
